Experimental data as given in patent US12545652B2, “Crystalline forms of a TYK2 inhibitor” (Sareum Limited, priority 2020, dated 2026).
≈ marks a conversion by molar mass, not a printed value.

How the values were obtained:
Format in all cases: physicochemical
[1] = Rapidly cooled, reverse anti-solvent addition crystallisation at −10° C., observations and form fate by XRPD; details: for Observation: −10° C., 30 vol. anti-solvent; for Crystalline Form fate by XRPD: Reverse addition to anti-solvent at −10° C.
Procedure: Anti-solvent crystallisation was carried out by dissolving 2-(2,6-dichlorophenyl)-5-[4-(1,1-dioxo-1,4-thiazinane-4-carbonyl)anilino]oxazole-4-carboxamide in a solvent with heating, clarifying the solution and adding cold anti-solvent using the following method.
2-(2,6-dichlorophenyl)-5-[4-(1,1-dioxo-1,4-thiazinane-4-carbonyl)anilino]oxazole-4-carboxamide, 4×153-155 mg, was weighed into four crystallisation tubes and a different solvent (see Table 10) was charged into each. The mixtures were heated to 60° C. to achieve dissolution and then clarified.
Three anti-solvents (see Table 10), 1.5 ml, were each charged to four crystallisation tubes and cooled to −10° C.
The clarified solutions of 2-(2,6-dichlorophenyl)-5-[4-(1,1-dioxo-1,4-thiazinane-4-carbonyl)anilino]oxazole-4-carboxamide at 60° C. were charged to the cold anti-solvents in aliquots containing ca. 50 mg of the compound (into ca. 30 vol. anti-solvent) and immediate observations were noted.
The resulting mixtures were equilibrated at −10° C. for ca. 22 hours, observations were made and the solids were isolated. All isolated solids were dried in vacuo under air for ca. 20 minutes and then dried in vacuo at 45° C. for 23½ hours.

[2] = Dynamic vapour sorption (DVS); details: 25° C.
Procedure: Sorption isotherms were obtained using a Hiden Isochema moisture sorption analyser (model IGAsorp), controlled by IGAsorp Systems Software V6.50.48. The sample was maintained at a constant temperature (25° C.) by the instrument controls. The humidity was controlled by mixing streams of dry and wet nitrogen, with a total flow of 250 ml·min^−1. The instrument was verified for relative humidity content by measuring three calibrated Rotronic salt solutions (10-50-88%). The weight change of the sample was monitored as a function of humidity by a microbalance (accuracy +/−0.005 mg). A defined amount of sample was placed in a tared mesh stainless steel basket under ambient conditions. A full experimental cycle typically consisted of three scans (sorption, desorption and sorption) at a constant temperature (25° C.) and 10% RH intervals over a 0-90% range (60 minutes for each humidity level).

[3] = Solubility at 25° C. by HPLC of filtrates after equilibration of Form A in solvents; details: for solubility: 25 °C, organic solvent or mixture, thermodynamic from solid

Structure (SMILES): NC(=O)c1nc(-c2c(Cl)cccc2Cl)oc1Nc1ccc(C(=O)N2CCS(=O)(=O)CC2)cc1 [Form A, 2-(2,6-dichlorophenyl)-5-[4-(1,1-dioxo-1,4-thiazinane-4-carbonyl)anilino]oxazole-4-carboxamide]
- Observation ([1]; ID A1, THF/water, 4:1 10 vol., Heptane, 5 Hrs): Suspension
- Observation ([1]; ID A1, THF/water, 4:1 10 vol., Heptane, 22 Hrs): Suspension
- Observation ([1]; ID A1, THF/water, 4:1 10 vol., Heptane, Immediate): Gum
- Observation ([1]; ID A2, THF/water, 4:1 10 vol., Benzotrifluoride, 5 Hrs): Suspension
- Observation ([1]; ID A2, THF/water, 4:1 10 vol., Benzotrifluoride, 22 Hrs): Suspension
- Observation ([1]; ID A2, THF/water, 4:1 10 vol., Benzotrifluoride, Immediate): Suspension
- Observation ([1]; ID A3, THF/water, 4:1 10 vol., 2-Chlorobutane, 5 Hrs): Suspension
- Observation ([1]; ID A3, THF/water, 4:1 10 vol., 2-Chlorobutane, 22 Hrs): Suspension
- Observation ([1]; ID A3, THF/water, 4:1 10 vol., 2-Chlorobutane, Immediate): Suspension
- Observation ([1]; ID B1, THF 25 vol., Heptane, 5 Hrs): Suspension
- Observation ([1]; ID B1, THF 25 vol., Heptane, 22 Hrs): Suspension
- Observation ([1]; ID B1, THF 25 vol., Heptane, Immediate): Suspension
- Observation ([1]; ID B2, THF 25 vol., Benzotrifluoride, 5 Hrs): Suspension
- Observation ([1]; ID B2, THF 25 vol., Benzotrifluoride, 22 Hrs): Suspension
- Observation ([1]; ID B2, THF 25 vol., Benzotrifluoride, Immediate): Suspension
- Observation ([1]; ID B3, THF 25 vol., 2-Chlorobutane, 5 Hrs): Suspension
- Observation ([1]; ID B3, THF 25 vol., 2-Chlorobutane, 22 Hrs): Suspension
- Observation ([1]; ID B3, THF 25 vol., 2-Chlorobutane, Immediate): Suspension
- Observation ([1]; ID C1, Nitromethane 50 vol., Heptane, 5 Hrs): Bi. Susp.
- Observation ([1]; ID C1, Nitromethane 50 vol., Heptane, 22 Hrs): Bi. Susp.
- Observation ([1]; ID C1, Nitromethane 50 vol., Heptane, Immediate): Immiscible
- Observation ([1]; ID C2, Nitromethane 50 vol., Benzotrifluoride, 5 Hrs): Solution
- Observation ([1]; ID C2, Nitromethane 50 vol., Benzotrifluoride, 22 Hrs): Suspension
- Observation ([1]; ID C2, Nitromethane 50 vol., Benzotrifluoride, Immediate): Solution
- Observation ([1]; ID C3, Nitromethane 50 vol., 2-Chlorobutane, 5 Hrs): Solution
- Observation ([1]; ID C3, Nitromethane 50 vol., 2-Chlorobutane, 22 Hrs): Haze
- Observation ([1]; ID C3, Nitromethane 50 vol., 2-Chlorobutane, Immediate): Solution
- Observation ([1]; ID D1, MeCN/water, 4:1 55 vol., Heptane, 5 Hrs): Bi. Susp.
- Observation ([1]; ID D1, MeCN/water, 4:1 55 vol., Heptane, 22 Hrs): Bi. Susp.
- Observation ([1]; ID D1, MeCN/water, 4:1 55 vol., Heptane, Immediate): Immiscible
- Observation ([1]; ID D2, MeCN/water, 4:1 55 vol., Benzotrifluoride, 5 Hrs): Suspension
- Observation ([1]; ID D2, MeCN/water, 4:1 55 vol., Benzotrifluoride, 22 Hrs): Suspension
- Observation ([1]; ID D2, MeCN/water, 4:1 55 vol., Benzotrifluoride, Immediate): Haze
- Observation ([1]; ID D3, MeCN/water, 4:1 55 vol., 2-Chlorobutane, 5 Hrs): Suspension
- Observation ([1]; ID D3, MeCN/water, 4:1 55 vol., 2-Chlorobutane, 22 Hrs): Suspension
- Observation ([1]; ID D3, MeCN/water, 4:1 55 vol., 2-Chlorobutane, Immediate): Haze
- Crystalline Form fate by XRPD ([1]; MeCN/water, 4:1 55 vol., 2-Chlorobutane): Form B
- Crystalline Form fate by XRPD ([1]; MeCN/water, 4:1 55 vol., Benzotrifluoride): Form B
- Crystalline Form fate by XRPD ([1]; MeCN/water, 4:1 55 vol., Heptane): Form A
- Crystalline Form fate by XRPD ([1]; Nitromethane 50 vol., 2-Chlorobutane): Form B/C mix
- Crystalline Form fate by XRPD ([1]; Nitromethane 50 vol., Benzotrifluoride): Form C
- Crystalline Form fate by XRPD ([1]; Nitromethane 50 vol., Heptane): Form C
- Crystalline Form fate by XRPD ([1]; THF 25 vol., 2-Chlorobutane): Low cryst. Form C
- Crystalline Form fate by XRPD ([1]; THF 25 vol., Benzotrifluoride): Low cryst. Form B
- Crystalline Form fate by XRPD ([1]; THF 25 vol., Heptane): Low cryst. Form B +
- Crystalline Form fate by XRPD ([1]; THF/water, 4:1 10 vol., 2-Chlorobutane): Low cryst. Form B
- Crystalline Form fate by XRPD ([1]; THF/water, 4:1 10 vol., Benzotrifluoride): Low cryst. Form B
- Crystalline Form fate by XRPD ([1]; THF/water, 4:1 10 vol., Heptane): Low cryst. Form B
- DVS total weight gain upon sorption ([2]; from 0 to 90% RH): ca. 3.25 wt %
- DVS weight reduction upon the first desorption ([2]; from 50 to 0% RH): ca. 2.75 wt %
- Solubility at 25° C. ([3]; 2-Chlorobutane): 290 µg/mL (≈ 0.569 mM)
- solubility ([3]; 4:1 IPA/water, 4:1 IPA/water): 7650 µg/mL (≈ 15 mM)
- solubility ([3]; 4:1 MeCN/water, 4:1 MeCN/water): 19800 µg/mL (≈ 38.8 mM)
- Solubility at 25° C. ([3]; 4:1 THF/water): >67000 µg/mL
- Solubility at 25° C. ([3]; Anisole): 10610 µg/mL (≈ 20.8 mM)
- solubility ([3]; CPME): 1870 µg/mL (≈ 3.67 mM)
- Solubility at 25° C. ([3]; Cyclohexane): 10 µg/mL (≈ 0.0196 mM)
- Solubility at 25° C. ([3]; DCM): 22830 µg/mL (≈ 44.8 mM)
- solubility ([3]; EtOAc): 6640 µg/mL (≈ 13 mM)
- solubility ([3]; EtOH): 5200 µg/mL (≈ 10.2 mM)
- solubility ([3]; IPA): 2450 µg/mL (≈ 4.81 mM)
- solubility ([3]; MEK): 6080 µg/mL (≈ 11.9 mM)
- solubility ([3]; MIBK): 7400 µg/mL (≈ 14.5 mM)
- solubility ([3]; MeCN): 9160 µg/mL (≈ 18 mM)
- solubility ([3]; MeOH): 2520 µg/mL (≈ 4.95 mM)
- Solubility at 25° C. ([3]; Nitromethane): 20520 µg/mL (≈ 40.3 mM)
- Solubility at 25° C. ([3]; TBME): 700 µg/mL (≈ 1.37 mM)
- Solubility at 25° C. ([3]; THF): 33300 µg/mL (≈ 65.4 mM)
- Solubility at 25° C. ([3]; Water): 60 µg/mL (≈ 0.118 mM)
- solubility ([3]; benzotrifluoride): 160 µg/mL (≈ 0.314 mM)
- solubility ([3]; chlorobenzene): 1870 µg/mL (≈ 3.67 mM)
- solubility ([3]; iPrOAc): 6960 µg/mL (≈ 13.7 mM)
- solubility ([3]; toluene): 1120 µg/mL (≈ 2.2 mM)
